Measurements published in patent publication US8791267B2, “Biaryl PDE4 inhibitors for treating inflammatory, cardiovascular and CNS disorders” (Decode Genetics EHF, priority 2007, dated 2014).
Counter-ions that a name gives are not always drawn.

Key:
PDE4 = PDE4 (Homo sapiens, UniProt Q08499); test: In-vitro assay for PDE4 enzymes, real-time enzyme-coupled spectrophotometric assay (Table 9); assay type: biochemical; settings: human PDE4D; activity class, Table 9; read-out: hPDE4D
PDE4B = PDE4B (Homo sapiens, UniProt Q07343); test: In-vitro assay for PDE4 enzymes, real-time enzyme-coupled spectrophotometric assay, PDE4B Activity (Table 10); assay type: biochemical; settings: human PDE4B (hPDE4B), enzyme-coupled spectrophotometric assay; read-out: PDE4B Activity, hPDE4B
Sequence of PDE4B (Q07343 whole entry): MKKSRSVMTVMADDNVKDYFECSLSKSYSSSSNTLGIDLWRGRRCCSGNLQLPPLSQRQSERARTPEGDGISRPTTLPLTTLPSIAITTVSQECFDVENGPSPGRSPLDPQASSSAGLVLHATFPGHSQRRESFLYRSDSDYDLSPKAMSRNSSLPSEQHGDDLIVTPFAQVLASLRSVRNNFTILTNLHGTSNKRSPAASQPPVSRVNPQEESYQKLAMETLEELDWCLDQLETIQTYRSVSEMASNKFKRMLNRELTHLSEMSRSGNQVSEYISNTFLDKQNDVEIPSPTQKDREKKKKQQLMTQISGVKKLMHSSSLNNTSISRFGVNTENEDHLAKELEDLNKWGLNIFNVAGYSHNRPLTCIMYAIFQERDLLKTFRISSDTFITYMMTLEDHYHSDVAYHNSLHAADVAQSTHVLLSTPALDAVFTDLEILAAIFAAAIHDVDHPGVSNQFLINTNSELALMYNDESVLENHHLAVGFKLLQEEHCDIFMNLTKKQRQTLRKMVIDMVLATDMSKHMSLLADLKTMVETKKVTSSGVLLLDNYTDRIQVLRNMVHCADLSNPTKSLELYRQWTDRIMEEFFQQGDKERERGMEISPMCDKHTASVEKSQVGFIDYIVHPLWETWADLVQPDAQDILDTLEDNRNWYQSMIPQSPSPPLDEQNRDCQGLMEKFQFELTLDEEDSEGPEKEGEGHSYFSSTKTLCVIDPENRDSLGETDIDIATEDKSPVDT

Sequence of PDE4 (Q08499 whole entry): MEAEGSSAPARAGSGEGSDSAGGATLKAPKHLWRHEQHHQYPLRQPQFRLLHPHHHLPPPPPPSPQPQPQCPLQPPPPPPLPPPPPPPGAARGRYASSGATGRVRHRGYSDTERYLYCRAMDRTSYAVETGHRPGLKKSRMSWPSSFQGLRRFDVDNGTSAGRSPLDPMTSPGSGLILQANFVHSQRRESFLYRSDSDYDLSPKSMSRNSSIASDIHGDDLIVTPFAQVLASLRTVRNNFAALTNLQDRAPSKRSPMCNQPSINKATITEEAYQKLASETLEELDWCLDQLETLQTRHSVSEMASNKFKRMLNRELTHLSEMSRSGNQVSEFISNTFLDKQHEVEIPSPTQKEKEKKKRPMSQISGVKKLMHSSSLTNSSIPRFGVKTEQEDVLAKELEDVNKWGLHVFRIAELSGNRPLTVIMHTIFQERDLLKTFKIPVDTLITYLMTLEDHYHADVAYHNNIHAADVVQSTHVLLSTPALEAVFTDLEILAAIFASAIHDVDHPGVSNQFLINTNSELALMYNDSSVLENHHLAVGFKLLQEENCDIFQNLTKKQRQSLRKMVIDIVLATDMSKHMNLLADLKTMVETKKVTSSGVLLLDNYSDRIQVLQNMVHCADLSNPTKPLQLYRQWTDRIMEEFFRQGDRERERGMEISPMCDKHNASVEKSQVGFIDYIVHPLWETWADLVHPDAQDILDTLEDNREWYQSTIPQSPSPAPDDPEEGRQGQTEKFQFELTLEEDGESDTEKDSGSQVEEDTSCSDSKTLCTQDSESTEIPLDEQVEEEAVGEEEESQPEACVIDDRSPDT

Structure (SMILES): CCNC(=O)Nc1ccc(Oc2ccc(OC)c(-c3cccc(C#N)c3)c2F)cn1 [P-440, 1-[5-(3′-Cyano-2-fluoro-6-methoxy-biphenyl-3-yloxy)-pyridin-2-yl]-3-ethyl-urea]
- IC50 (PDE4): < 5 µM
- IC50 (PDE4B): 5 to 20 µM

Structure (SMILES): COc1ccc(Cc2cnc(NS(C)(=O)=O)nc2)c(F)c1-c1cccc(Cl)c1 [P-292]
- IC50 (PDE4): < 5 µM
- IC50 (PDE4B): 5 to 20 µM

Structure (SMILES): COc1ccc(Cc2ccc(C(N)=O)nc2)c(F)c1-c1cccc(C(C)=O)c1 [P-328, 5-(3′-Acetyl-2-fluoro-6-methoxy-biphenyl-3-ylmethyl)-pyridine-2-carboxylic acid amide]
- IC50 (PDE4): < 5 µM
- IC50 (PDE4B): < 5 µM

Structure (SMILES): COc1ccc(Cn2cnc3ccccc32)cc1-c1ccc2nonc2c1 [P-014, 5-(5-Benzoimidazol-1-ylmethyl-2-methoxy-phenyl)-benzo[1,2,5]oxadiazole]
- IC50 (PDE4): 5 to 20 µM
- IC50 (PDE4B): 5 to 20 µM

Structure (SMILES): COc1ccc(Cc2ccc(N3CCN(C(N)=O)CC3)nc2)c(F)c1-c1cccc(Cl)c1 [P-432]
- IC50 (PDE4): < 5 µM
- IC50 (PDE4B): < 5 µM

Structure (SMILES): NCc1ccc(Cc2ccc(OC(F)F)c(-c3cccc(Cl)c3)c2)cn1 [P-596, C-[5-(3′-Chloro-6-difluoromethoxy-biphenyl-3-ylmethyl)-pyridin-2-yl]-methylamine]
- IC50 (PDE4): < 5 µM
- IC50 (PDE4B): < 5 µM

Structure (SMILES): COc1ccc(Cc2ccc(NS(C)(=O)=O)nc2)c(F)c1-c1cccc(C(C)=O)c1 [P-297]
- IC50 (PDE4): < 5 µM
- IC50 (PDE4B): 5 to 20 µM

Structure (SMILES): COc1ccc(Cc2ccc(CO)cc2)c(O)c1-c1cccc([N+](=O)[O-])c1 [P-183, 3-(4-Hydroxymethyl-benzyl)-6-methoxy-3′-nitro-biphenyl-2-ol]
- IC50 (PDE4): < 5 µM
- IC50 (PDE4B): < 5 µM

Structure (SMILES): CCNc1ccc(Cc2ccc(OC)c(-c3cccc(C(C)=O)c3)c2F)cn1 [P-339]
- IC50 (PDE4): < 5 µM
- IC50 (PDE4B): < 5 µM

Structure (SMILES): COc1ccc(Cc2ccc(NS(C)(=O)=O)cc2)cc1-c1cccc([N+](=O)[O-])c1 [P-123]
- IC50 (PDE4): < 5 µM
- IC50 (PDE4B): < 5 µM

Structure (SMILES): COc1ccc(Cc2ccc(NC(=O)CN(C)C)cc2)cc1-c1cccc([N+](=O)[O-])c1 [P-144]
- IC50 (PDE4): < 5 µM
- IC50 (PDE4B): < 5 µM

Structure (SMILES): COc1ccc(Cn2nc3ccccn3c2=O)cc1-c1cccc([N+](=O)[O-])c1 [P-047, 2-(6-Methoxy-3′-nitro-biphenyl-3-ylmethyl)-2H-[1,2,4]triazolo[4,3-a]pyridin-3-one]
- IC50 (PDE4): 5 to 20 µM
- IC50 (PDE4B): < 5 µM

Structure (SMILES): [2H]C(O)(c1ccc([N+](=O)[O-])cc1)c1ccc(OC)c(-c2cccc(Cl)c2)c1 (stereo not shown) [P-583]
- IC50 (PDE4): < 5 µM
- IC50 (PDE4B): 5 to 20 µM

Structure (SMILES): COc1ccc(Cn2ccc(CN)cc2=O)cc1-c1cccc([N+](=O)[O-])c1 [P-213, 4-Aminomethyl-1-(6-methoxy-3′-nitro-biphenyl-3-ylmethyl)-1H-pyridin-2-one]
- IC50 (PDE4): 5 to 20 µM
- IC50 (PDE4B): < 5 µM

Structure (SMILES): COc1ccc(Cc2cnc(N)s2)c(F)c1-c1cccc(Cl)c1 [P-369, 5-(3′-Chloro-2-fluoro-6-methoxy-biphenyl-3-ylmethyl)-thiazol-2-ylamine]
- IC50 (PDE4): < 5 µM
- IC50 (PDE4B): < 5 µM

Structure (SMILES): COc1ccc(Cc2cccc(NC(C)=O)c2)c(F)c1-c1cccc(Cl)c1 [P-233]
- IC50 (PDE4): < 5 µM
- IC50 (PDE4B): < 5 µM

Structure (SMILES): COc1ccc(Cc2ccc(N(C)C)nc2)c(F)c1-c1cccc(Cl)c1 [P-473, [5-(3′-Chloro-2-fluoro-6-methoxy-biphenyl-3-ylmethyl)-pyridin-2-yl]-dimethyl-amine]
- IC50 (PDE4): < 5 µM
- IC50 (PDE4B): < 5 µM

Structure (SMILES): COc1ccc(Cc2ccc(CN)c(O)c2)c(F)c1-c1cccc(Cl)c1 [P-296]
- IC50 (PDE4): < 5 µM
- IC50 (PDE4B): 21 to 40 µM

Structure (SMILES): COc1ccc(Cc2ccc(NC(C)=O)nc2)c(F)c1-c1cccc(Cl)c1 [P-387]
- IC50 (PDE4): < 5 µM
- IC50 (PDE4B): < 5 µM

Structure (SMILES): CCNC(=O)Nc1ncc(Cc2ccc(OC)c(-c3cccc(C(C)=O)c3)c2F)cn1 [P-315, 1-[5-(3′-Acetyl-2-fluoro-6-methoxy-biphenyl-3-ylmethyl)-pyrimidin-2-yl]-3-ethyl-urea]
- IC50 (PDE4): < 5 µM
- IC50 (PDE4B): < 5 µM

Structure (SMILES): COc1ccc(Cc2cnc(N(C)C)nc2)c(F)c1-c1cccc(C(C)=O)c1 [P-325, 1-[3′-(2-Dimethylamino-pyrimidin-5-ylmethyl)-2′-fluoro-6′-methoxy-biphenyl-3-yl]-ethanone]
- IC50 (PDE4): < 5 µM
- IC50 (PDE4B): < 5 µM

Structure (SMILES): COc1ccc(Cn2cc(NC(N)=O)ccc2=O)cc1-c1cccc([N+](=O)[O-])c1 [P-208, [1-(6-Methoxy-3′-nitro-biphenyl-3-ylmethyl)-6-oxo-1,6-dihydro-pyridin-3-yl]-urea]
- IC50 (PDE4): 5 to 20 µM
- IC50 (PDE4B): 5 to 20 µM

Structure (SMILES): COc1ccc(C(C)(O)c2ccc(NC(N)=O)cc2)c(F)c1-c1cccc(Cl)c1 (stereo not shown) [P-441, {4-[1-(3′-chloro-2-fluoro-6-methoxy-biphenyl-3-yl)-1-hydroxy-ethyl]-phenyl}-urea]
- IC50 (PDE4): < 5 µM
- IC50 (PDE4B): 5 to 20 µM

Structure (SMILES): COc1ccc(C(=O)c2ccc(N)cc2)cc1-c1ccc2c(c1)OCCO2 [P-578]
- IC50 (PDE4): < 5 µM
- IC50 (PDE4B): < 5 µM

Structure (SMILES): COc1ccc(Cc2ccc(OC)c(-c3cccc([N+](=O)[O-])c3)c2O)cn1 [P-125]
- IC50 (PDE4): < 5 µM
- IC50 (PDE4B): < 5 µM

Structure (SMILES): CNC(=O)NCc1ccc(Cc2ccc(OC)c(-c3cccc(Cl)c3)c2)cn1 [P-593, 1-[5-(3′-chloro-6-methoxy-biphenyl-3-ylmethyl)-pyridin-2-ylmethyl]-3-methyl-urea hydrochloride]
- IC50 (PDE4): < 5 µM
- IC50 (PDE4B): < 5 µM

Structure (SMILES): COc1ccc(Nc2ccc(NC(N)=O)cc2)cc1-c1cccc(C(C)=O)c1 [P-268, [4-(3′-acetyl-6-methoxy-biphenyl-3-ylamino)-phenyl]-urea]
- IC50 (PDE4): < 5 µM
- IC50 (PDE4B): 5 to 20 µM

Structure (SMILES): COc1ccc(Cc2ccc(NC(=O)CN)cc2)cc1-c1cccc([N+](=O)[O-])c1 [P-145]
- IC50 (PDE4): < 5 µM
- IC50 (PDE4B): < 5 µM

Structure (SMILES): Cn1nccc1Cc1ccc(OC(F)F)c(-c2ccc3c(c2)OCO3)c1 [P-201, 5-(3-Benzo[1,3]dioxol-5-yl-4-difluoromethoxy-benzyl)-1-methyl-1H-pyrazole]
- IC50 (PDE4): 5 to 20 µM
- IC50 (PDE4B): 21 to 40 µM

Structure (SMILES): COc1ccc(Cn2ccccc2=O)cc1-c1cccc([N+](=O)[O-])c1 [P-104, 1-(6-Methoxy-3′-nitro-biphenyl-3-ylmethyl)-1H-pyridin-2-one]
- IC50 (PDE4): < 5 µM
- IC50 (PDE4B): < 5 µM

Structure (SMILES): COc1ccc(COc2ccc([N+](=O)[O-])cc2)c(F)c1-c1cccc(Cl)c1 [P-575]
- IC50 (PDE4): 5 to 20 µM
- IC50 (PDE4B): < 5 µM

Structure (SMILES): COc1ccc(Cc2c(C)nn(CC(F)(F)F)c2C)cc1-c1cccc([N+](=O)[O-])c1 [P-090, 4-(6-Methoxy-3′-nitro-biphenyl-3-ylmethyl)-3,5-dimethyl-1-(2,2,2-trifluoro-ethyl)-1H-pyrazole]
- IC50 (PDE4): < 5 µM
- IC50 (PDE4B): < 5 µM

Structure (SMILES): COc1ccc(Cc2ccc[nH]c2=O)c(O)c1-c1cccc(N)c1 [P-185]
- IC50 (PDE4): 5 to 20 µM
- IC50 (PDE4B): 21 to 40 µM

Structure (SMILES): COc1ccc(C(C)(O)c2ccc(NC(C)=O)cc2)c(F)c1-c1cccc(Cl)c1 (racemic) [P-530, N-{4-[1-(3′-Chloro-2-fluoro-6-methoxy-biphenyl-3-yl)-1-hydroxy-ethyl]-phenyl}-acetamide]
- IC50 (PDE4): < 5 µM
- IC50 (PDE4B): 21 to 40 µM

Structure (SMILES): COc1ccc(Cc2ccncc2)c(O)c1-c1cccc([N+](=O)[O-])c1 [P-017, 6-methoxy-3′-nitro-3-pyridin-4-ylmethyl-biphenyl-2-ol]
- IC50 (PDE4): < 5 µM
- IC50 (PDE4B): < 5 µM

Structure (SMILES): COc1ccc(Cc2ccc(N)cn2)c(F)c1-c1cccc(Cl)c1 [P-478]
- IC50 (PDE4): < 5 µM
- IC50 (PDE4B): < 5 µM

Structure (SMILES): [2H]C([2H])(c1ccc(NC(N)=O)cc1)c1ccc(OC)c(-c2cccc(Cl)c2)c1F [P-532, {4-[(3′-Chloro-2-fluoro-6-methoxy-biphenyl-3-yl)-bisduetero-methyl]-phenyl}-urea]
- IC50 (PDE4): < 5 µM
- IC50 (PDE4B): < 5 µM

Structure (SMILES): COc1ccc(Cc2ccc(OCCN(C)C)cc2)cc1-c1cccc([N+](=O)[O-])c1 [P-164]
- IC50 (PDE4): < 5 µM
- IC50 (PDE4B): 5 to 20 µM

Structure (SMILES): COc1ccc(Cc2ccc(CO)nc2)cc1-c1cccc(Cl)c1 [P-567, [5-(3′-Chloro-6-methoxy-biphenyl-3-ylmethyl)-pyridin-2-yl]-methanol]
- IC50 (PDE4): < 5 µM
- IC50 (PDE4B): < 5 µM

Structure (SMILES): COc1ccc(CN2CCCC2=O)cc1-c1ccccc1 [P-162, 1-(6-Methoxy-biphenyl-3-ylmethyl)-pyrrolidin-2-one]
- IC50 (PDE4): 5 to 20 µM
- IC50 (PDE4B): 5 to 20 µM

Structure (SMILES): COc1cc(F)c(C(O)c2ccc(F)cc2)cc1-c1cccc([N+](=O)[O-])c1 (stereo not shown) [P-093, (4-Fluoro-6-methoxy-3′-nitro-biphenyl-3-yl)-(4-fluoro-phenyl)-methanol]
- IC50 (PDE4): < 5 µM
- IC50 (PDE4B): 5 to 20 µM

Structure (SMILES): COc1ccc(Cc2ccc3nc(N)oc3c2)c(F)c1-c1cccc(Cl)c1 [P-285]
- IC50 (PDE4): < 5 µM
- IC50 (PDE4B): 5 to 20 µM

Structure (SMILES): COc1ccc(Cc2ccc(N)nc2)c(F)c1-c1cccc(C(C)=O)c1 [P-277, 1-[3′-(6-Amino-pyridin-3-ylmethyl)-2′-fluoro-6′-methoxy-biphenyl-3-yl]-ethanone]
- IC50 (PDE4): < 5 µM
- IC50 (PDE4B): < 5 µM

Structure (SMILES): COc1ccc(C(=O)c2ccc(F)cc2)c(F)c1-c1cccc([N+](=O)[O-])c1 [P-049]
- IC50 (PDE4): < 5 µM
- IC50 (PDE4B): < 5 µM

Structure (SMILES): COc1ccc(Cc2ccc(Br)nc2)c(F)c1-c1cccc(Cl)c1 [P-402, 2-Bromo-5-(3′-chloro-2-fluoro-6-methoxy-biphenyl-3-ylmethyl)-pyridine]
- IC50 (PDE4): < 5 µM
- IC50 (PDE4B): < 5 µM

Structure (SMILES): COc1ccc(Cn2c(N)cccc2=O)cc1-c1cccc([N+](=O)[O-])c1 [P-236, 6-Amino-1-(6-methoxy-3′-nitro-biphenyl-3-ylmethyl)-1H-pyridin-2-one]
- IC50 (PDE4): 20 to 40 µM
- IC50 (PDE4B): 21 to 40 µM

Structure (SMILES): O=[N+]([O-])c1cccc(-c2nc(Cc3ccc(F)cc3)ccc2OC(F)F)c1 [P-057]
- IC50 (PDE4): < 5 µM
- IC50 (PDE4B): < 5 µM

Structure (SMILES): COc1ccc(Cn2cncn2)cc1-c1cccc(C#N)c1 [P-081, 2′-Methoxy-5′-[1,2,4]triazol-1-ylmethyl-biphenyl-3-carbonitrile]
- IC50 (PDE4): < 5 µM
- IC50 (PDE4B): 5 to 20 µM

Structure (SMILES): COc1ccc(Cc2cnc(Cl)nc2)c(F)c1-c1cccc(Cl)c1 [P-392]
- IC50 (PDE4): < 5 µM
- IC50 (PDE4B): < 5 µM

Structure (SMILES): COc1ccc(Cc2ccc(NS(C)(=O)=O)nc2)c(F)c1-c1cccc(Cl)c1 [P-258, N-[5-(3′-chloro-2-fluoro-6-methoxy-biphenyl-3-ylmethyl)-pyridin-2-yl]-methanesulfonamide]
- IC50 (PDE4): < 5 µM
- IC50 (PDE4B): < 5 µM
